Source: patent US6573253B2, “Methods for the administration of amifostine and related compounds” (MedImmune Oncology Inc., priority 1997, dated 2003)
Where “and” joins values, the source holds several entries; their conditions need not be identical. Identical values can stand only once.

What was measured:
[1] = human, in vivo
Method: All subjects were sequestered at the study site from the evening before the administration of the first dose of study drug until the final whole blood sample was obtained.
Blood samples (5 to 7 mL each) were collected either by venipuncture or indwelling venous catheter (IVC) heparin lock. If IVC was used, it was inserted in the arm opposite the infusion site. […] For either line, the first 3 to 5 cc of blood were discarded (void volume) prior to blood collection.
To prevent further oxidation of WR-1065, PCA/EDTA was added to the samples prior to centrifugation. Because PCA/EDTA ruptures the cellular content of the blood, the samples were centrifuged for a longer period of time to prevent contamination/metabolism of the active metabolite. Consequently, only the clear supernatant (serum) was used for analysis of WR-1065. In contrast, no PCA/EDTA was added to the blood samples designated for analysis of the parent drug; therefore, plasma samples were prepared for analysis of the parent drug.
WINNONLIN, the WINDOWS version of PCNONLIN, was used for the determination of pharmacokinetic parameters for each subject following each route of administration. Non-compartmental modelling of the data was performed.
AUCs were calculated using extrapolation according to a straightline from the last non-zero point.
The AUCs were then analyzed using an analysis of variance (ANOVA) model with route, period and subject as variables. Sequence was not included in the model as this variable was uniquely determined by route and period. The confidence interval on the ratio of the subcutaneous or oral route to the intravenous route was calculated using the mean square error from the entire ANOVA model.

[2] = tested on: Bone marrow progenitor cells; test: In vitro colony formation (CFU-GEMM, BFU-E, CFU-GM) of bone marrow progenitor cells from treated MDS patients, methylcellulose assays; type: cell-based, human; conditions: bone marrow progenitor cells from MDS patients after s.c. amifostine
Method: (§1) Blood pressure was monitored before treatment and after the first dose at 30 minute intervals for up to 90 minutes. […] At least three patients were treated with each dose. […] Hematologic responses to treatment were evaluated by measuring neutrophil count (ANC), platelet count, erythroid response including hemoglobin levels and reticulocyte count, and in vitro colony formation.
Bone marrow progenitor cells were recovered from the treated patients and assayed for their ability to form CFU-GEMM, BFU-E and CFU-GM colonies in standard methylcellulose assays.

MDS = test: Subcutaneous amifostine in MDS patients: hematologic responses and adverse effects; type: in vivo, human
From the text: All patients in the study had MDS and were diagnosed as having one of the following subtypes: refractory anemia, refractory anemia with ring sideroblasts, refractory anemia with excess blasts or refractory anemia with excess blasts in transformation. In addition, the patients had thrombocytopenia (platelets <100,000/μl), neutropenia (ANC or absolute neutrophil count<1500/μl) or a hemoglobin untransfused <10 g/dl and/or were transfusion-dependent as defined by requiring at least 4 units of RBC in the 10 weeks prior to entry.
as §1

[3] = tested on: radiation-induced xerostomia; conditions: IV Amifostine + RT, cited from earlier work
[4] = Phase I three-way crossover study: safety assessments / adverse events (NCI Common Toxicity Criteria)
Method: If hypotension occurred, the subject was to receive a rapid infusion of 500 mL normal saline and was to be kept supine or in the Trendelenburg position until blood pressure returned to baseline. During this time, blood pressure was monitored every 3 minutes.
All subjects who had received at least one dose of protocol therapy were considered evaluable for safety. […] Toxicity was based on National Cancer Institute (NCI) Common Toxicity Criteria.
Because this was a crossover study to be performed on three successive days, toxicities were assigned to the route of administration on the day the toxicity occurred. A full nonparametric crossover model (likelihood of ratio test) was used to assess toxicities which corrected for period and sequence effects. A PROC CATMOD of SAS@ was used for this analysis.

mucositis = test: Rat RT model: mucosal radioprotection by IV or SC amifostine at various times before 15.3 Gy head and neck irradiation (mucositis score); type: in vivo; conditions: rats, 200 mg/kg (1200 mg/m^2), given up to 4 hours prior to radiation therapy (15.3 Gy)
Method: A rat RT model was used to examine the protective effects of amifostine following IV as well as subcutaneous (SC) administration, and to investigate the length of time between amifostine administration and RT. In these experiments, rats were given 200 mg/kg (1200 mg/m^2) of amifostine IV or SC, and their head and neck regions exposed to 15.3 Gy of gamma irradiation at various times following amifostine administration. For 10 days after treatment, the rats were weighed and the oral cavities of the rats were examined for signs of mucositis. Mucosal erythema and mucosal edema were scored according to 0-5 and 0-2 scales, respectively, with the scores added to indicate overall mucositis.

[5] = tested on: radiation-induced xerostomia
Method: In the phase II study all patients were undergoing radiation therapy for histologically confirmed squamous cell carcinoma of the head and neck region. Patients were allowed to enter the study following surgery with curative intent as soon as the wound has healed but no later than 12 weeks post operatively.
Blood pressure and pulse were obtained prior to subcutaneous administration and repeated 10 minutes following administration. An IV was available to treat hypotension if it occurred. Patients received full supportive care including antiemetics, antibiotics, transfusions of blood and blood products, and the like when needed. Prophylactic antiemetics were not administered. If patients experienced nausea and vomiting they were administered either prochlorperazine, 10 mg PO, 30 minutes prior to therapy, repeating every 4 to 6 hours following therapy as needed or ondansetron, 8 mg PO, 30 minutes prior to therapy, repeating every 4 hours following therapy as needed.
Radiation therapy was provided with linear accelerators with appropriate photon and electron boosting to the nodes or Cobalt 60. The appropriate photon energy was based on optimizing the radiation therapy dose distribution within the target volume and minimizing dose to normal tissue. Patients were reproducibly mobilized and radio-opaque markers were used to delineate the extent of nodal disease and, where possible, the primary tumor. All fields were treated once daily at 1.8-2.0 Gy per fraction, five days per week to a total dose of:
Xerostomia was graded in each subject according to the RTOG criteria.

[6] = cited from earlier work
[7] = tested on: radiation-induced mucositis; test: Radiation-induced mucositis model, inferior lip of mice (Parkins et al.): body weight, mucosal erythema and edema scores; conditions: for Erythema (score) / Oedema (score): individual mice and Mean
[8] = MDS patients, s.c. 500 mg once/day, 17 evaluable
[9] = Intravenous 200 mg/m^2, N = 12, table cells give subject numbers
[10] = Intravenous 200 mg/m^2, N = 12, table cells give subject numbers, listed as amifostine
[11] = Oral 500 mg, N = 12, table cells give subject numbers
[12] = SC amifostine, head and neck cancer patients
[13] = intravenous, cancer patients, plasma
[14] = Amifostine (l.p.) at 200 mg/kg + Irradiation (16.5 Gy), day 6 after treatment, 200 mg/kg
[15] = Amifostine (l.p.) at 200 mg/kg + Irradiation (16.5 Gy), day 7 after treatment, 200 mg/kg
[16] = Amifostine (l.p.) at 200 mg/kg + Irradiation (16.5 Gy), day 13 after treatment, 200 mg/kg
[17] = Amifostine (l.p.) at 200 mg/kg + Irradiation (16.5 Gy), day 14 after treatment, 200 mg/kg
[18] = Amifostine (l.p.) at 400 mg/kg + Irradiation (16.5 Gy), day 13 after treatment, 400 mg/kg
[19] = Amifostine (l.p.) at 400 mg/kg + Irradiation (16.5 Gy), day 14 after treatment, 400 mg/kg
[20] = Amifostine (s.c.) at 200 mg/kg + Irradiation (16.5 Gy), day 9 after treatment, 200 mg/kg
[21] = Amifostine (s.c.) at 400 mg/kg + Irradiation (16.5 Gy), day 14 after treatment, 400 mg/kg

SMILES: NCCCNCCSP(=O)(O)O [Amifostine, S-2-(3-aminopropylamino)ethyl dihydrogen phosphorothioate]
- time after administration at which concentration dropped below 10 μM, amifostine (parent drug plus active metabolite) ([1]; iv): 45 min
- time after administration at which concentration dropped below 10 μM, amifostine (parent drug) ([1]; iv): approximately 30 minutes
- time after administration at which concentration dropped below 1.0 μM, amifostine (parent drug plus active metabolite) ([1]; po): 10 to 13 min
- time after administration at which concentration fell below 10 μM, amifostine (parent drug plus active metabolite) ([1]; sc): approximately 50 minutes
- time after administration at which concentration fell below 10 μM, amifostine (parent drug) ([1]; sc): approximately 45 minutes
- peak levels (maximum whole blood concentration) ([1]; male, iv): about 100 μM
- AUC of Combined (parent drug and active metabolite), 500 mg Oral (PO) ([1]; male, po): 0 µM·min
- maximum blood levels ([1]; male, sc): about 12 μM
- time to maximum and sustained whole blood concentration ([1]; male, sc): 15 to 45 min
- formation of CFU-GEMM, BFU-E and CFU-GM colonies [2]: produced bone marrow colonies
- Platelet response, patients with >50,000/μl: Responders (number) (MDS; 3 evaluable): 3
- Platelet response, patients with >50,000/μl: Responders (percent) (MDS; 3 evaluable): 100%
- BM Blasts ↑ (RAEB): patients (number; RAEB-t, AML) (MDS; 5 evaluable): 2 (RAEB-t, AML)
- Platelet response, patients with <50,000/μl: Responders (number) (MDS; 6 evaluable): 0
- Hemoglobin >1.5 g/dl ↑: Responders (number) (MDS; 7 evaluable): 1
- Ring Sideroblast ↓: Responders (number) (MDS; 7 evaluable): 3
- ANC response, patients with ANC < 1000: Responders (number) (MDS; 8 evaluable): 3
- ANC response, patients with ANC < 1000: Responders (percent) (MDS; 8 evaluable): 38.5%
- ANC response, patients with ANC > 1000: Responders (number) (MDS; 9 evaluable): 2
- ANC response, patients with ANC > 1000: Responders (percent) (MDS; 9 evaluable): 22%
- Platelets ≧ 50% ↑: Responders (number) (MDS; 9 evaluable): 3
- Platelets ≧ 50% ↑: Responders (percent) (MDS; 9 evaluable): 33%
- RBC Transfusion (≦50% ↓): Responders (number) (MDS; 13 evaluable): 0
- Retic count ≧ 50% ↑: Responders (number) (MDS; 14 evaluable): 10
- Retic count ≧ 50% ↑: Responders (percent) (MDS; 14 evaluable): 71%
- ANC ≧ 50% ↑: Responders (number) (MDS; [8]): 5
- ANC ≧ 50% ↑: Responders (percent) (MDS; [8]): 29%
- fatigue (grade I/II): patients (MDS; MDS patients, s.c. amifostine): four patients
- local reaction (grade III): patients (MDS; MDS patients, s.c. amifostine): one patient
- metallic taste (grade I/II): patients (MDS; MDS patients, s.c. amifostine): one patient
- nausea (grade I/II): patients (MDS; MDS patients, s.c. amifostine): one patient
- rash (grade I/II): patients (MDS; MDS patients, s.c. amifostine): six patients
- vomiting (grade I/II): patients (MDS; MDS patients, s.c. amifostine): one patient
- ≧Grade 2 acute xerostomia Incidence, All patients ([3]; 200 mg/m^2 3 minute infusion 15 to 30 minutes before RT, N 148): 51%
- ≧Grade 2 acute xerostomia Incidence, Patients receiving ≧60 Gy RT ([3]; 200 mg/m^2): 51%
- ≧Grade 2 acute xerostomia, Median cumulative RT dose to onset ([3]; 200 mg/m^2): 60 Gy
- ≧Grade 2 acute xerostomia, Median time to onset ([3]; 200 mg/m^2): 45 days
- Headache: subjects who reported the adverse event [4, 9]: 1008
- Hypotension: subjects who reported the adverse event [4, 9]: 1003
- Lightheadedness: subjects who reported the adverse event [4, 9]: 1003
- Somnolence: subjects who reported the adverse event [4, 9]: 1008
- Vomiting: subjects who reported the adverse event [4, 9]: 1008
- Hypotension: subjects who reported the adverse event [4, 10]: one subject
- Nausea: subjects who reported the adverse event [4, 10]: five subjects
- Vomiting: subjects who reported the adverse event [4, 10]: one subject
- Hypotension: subjects who reported the adverse event [4, 11]: 1003
- Lightheadedness: subjects who reported the adverse event [4, 11]: 1003
- Hypotension: subjects who reported the adverse event ([4]; Oral 500 mg, N = 12, table cells give subject numbers, listed as amifostine): one subject
- incidence of hypotension ([4]; Subcutaneous 500 mg, N = 12): no incidence
- Nausea: subjects who reported the adverse event ([4]; Subcutaneous 500 mg, N = 12, table cells give subject numbers): 1002
- Nausea: subjects who reported the adverse event ([4]; Subcutaneous 500 mg, N = 12, table cells give subject numbers, listed as amifostine): one subject
- Grade 2 or higher laboratory toxicity (NCI Common Toxicity Criteria) ([4]; after last dose, 12 subjects): none of the subjects
- serum creatinine value, Subject 1010 ([4]; after last dose, baseline 0.90 mg/dL, reference range 0.70 to 1.40 mg/dL): 0.60 mg/dL
- changes in physical examination, weight and vital signs ([4]; after the last dose of amifostine): No remarkable changes
- severity of adverse events ([4]; all three routes): mild in severity, transient
- discontinuation due to adverse events ([4]; all three routes, 12 subjects): No subject discontinued
- subjects who reported adverse events ([4]; intravenous amifostine, 12 subjects): Five subjects
- subjects who reported adverse events ([4]; oral amifostine, 12 subjects): one subject
- tolerability ([4]; regardless of route of administration): well tolerated
- subjects who reported adverse events ([4]; subcutaneous amifostine, 12 subjects): one subject
- radioprotection (mucositis) of SC versus IV administration (mucositis): comparable to IV administration
- rate of acute xerostomia with subcutaneous versus IV amifostine ([5]; SC amifostine + RT): comparable rate
- Grade 3 hypotension [5, 12]: no reports
- Grade 3 nausea/vomiting [5, 12]: no reports
- amifostine remaining in the plasma ([6]; 6 minutes after intravenous administration): Less than 10%
- distribution half-life [6, 13]: less than 1 minute
- elimination half-life [6, 13]: approximately 9 minutes
- Erythema (score) [7, 14]: 0.5 and 0
- Oedema (score) [7, 14]: 1 and 0 and 0.5
- Erythema (score) [7, 15]: 0.5 and 0
- Oedema (score) [7, 15]: 1 and 0 and 0.5
- Oedema (score) ([7]; Amifostine (l.p.) at 200 mg/kg + Irradiation (16.5 Gy), day 12 after treatment, 200 mg/kg): 2 and 1 and 0.5
- Erythema (score) [7, 16]: 0.5 and 2 and 1
- Oedema (score) [7, 16]: 0.5 and 2 and 1
- Erythema (score) [7, 17]: 0.5 and 2 and 1 and 0
- Oedema (score) [7, 17]: 0.5 and 2 and 1 and 0
- Oedema (score) ([7]; Amifostine (l.p.) at 400 mg/kg + Irradiation (16.5 Gy), day 6 after treatment, 400 mg/kg): 0.5 and 0
- Oedema (score) ([7]; Amifostine (l.p.) at 400 mg/kg + Irradiation (16.5 Gy), day 7 after treatment, 400 mg/kg): 0.5 and 0
- Erythema (score) ([7]; Amifostine (l.p.) at 400 mg/kg + Irradiation (16.5 Gy), day 12 after treatment, 400 mg/kg): 3 and 1 and 2
- Erythema (score) [7, 18]: 0 and 0.5
- Oedema (score) [7, 18]: 0.5 and 0
- Erythema (score) [7, 19]: 0 and 0.5
- Oedema (score) [7, 19]: 0.5 and 0
- Erythema (score) ([7]; Amifostine (s.c.) at 200 mg/kg + Irradiation (16.5 Gy), day 7 after treatment, 200 mg/kg): 0 and 0.5
- Erythema (score) [7, 20]: 0.5 and 1 and 3
- Oedema (score) [7, 20]: 0.5 and 1 and 2
- Erythema (score) ([7]; Amifostine (s.c.) at 200 mg/kg + Irradiation (16.5 Gy), day 13 after treatment, 200 mg/kg): 1 and 0.5 and 2
- Oedema (score) ([7]; Amifostine (s.c.) at 200 mg/kg + Irradiation (16.5 Gy), day 14 after treatment, 200 mg/kg): 0.5 and 1 and 0
- Oedema (score) ([7]; Amifostine (s.c.) at 400 mg/kg + Irradiation (16.5 Gy), day 6 after treatment, 400 mg/kg): 1 and 0.5 and 0
- Oedema (score) ([7]; Amifostine (s.c.) at 400 mg/kg + Irradiation (16.5 Gy), day 7 after treatment, 400 mg/kg): 0.5 and 0
- Erythema (score) ([7]; Amifostine (s.c.) at 400 mg/kg + Irradiation (16.5 Gy), day 13 after treatment, 400 mg/kg): 1 and 0 and 0.5
- Erythema (score) [7, 21]: 1 and 0 and 0.5
- Oedema (score) [7, 21]: 1 and 0 and 0.5
- mucosal edema scores as compared to saline plus irradiation ([7]; both injection methods (i.p., s.c.)): decreased
- average erythema score as compared to saline plus irradiation ([7]; i.p and s.c. administration): decreased
- reduction in body weight after irradiation ([7]; i.p. or s.c. injection of amifostine, irradiated mice): prevented
- effect of increasing the dose from 200 mg/kg to 400 mg/kg ([7]; irradiated mice): minimal additional benefits
- efficacy at the time points of maximal adverse effects (day 9 body weight, day 12 erythema and edema) ([7]; subcutaneous, 200 mg/kg): highest efficacy
